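All cell lines were grown in 96-well plates and treated with compound for 48 hours. The concentration for 50% growth inhibition is given as GI50. At the TGI there is no net growth.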
Tests used:
Experiment in all cases: inhibition of tumour cell growth, NCI panel, 48 h
MDA-N = system: MDA-N
KM20L2 colon = system: KM20L2 colon
LXFL 529 NSCLC = system: LXFL 529 NSCLC
M19-MEL melanoma = system: M19-MEL melanoma
SNB-78 CNS = system: SNB-78 CNS
XF 498 CNS = system: XF 498 CNS
HOP-18 NSCLC = system: HOP-18 NSCLC
RXF-631 renal = system: RXF-631 renal

Structure (SMILES)	GI50 (MDA-N) [µM]	TGI (MDA-N) [µM]	TGI (KM20L2 colon) [µM]	TGI (LXFL 529 NSCLC) [µM]	TGI (M19-MEL melanoma) [µM]	TGI (SNB-78 CNS) [µM]	TGI (XF 498 CNS) [µM]	TGI (HOP-18 NSCLC) [µM]	TGI (RXF-631 renal) [µM]	GI50 (HOP-18 NSCLC) [µM]	GI50 (M19-MEL melanoma) [µM]	GI50 (XF 498 CNS) [µM]
C1CC[N-]CC1.CC(=N\O)/C(C)=N/O.CC(=N\O)/C(C)=N/O.[CH2-]CCN1CCOCC1.[Co+2]	> 100	> 100	–	–	–	–	–	–	–	–	–	–
O=C(/C(=C/c1ccccc1)c1ccccc1)N1c2ccccc2CC1c1c[nH]c2ccccc12 (centres undefined)	–	–	> 100	> 100	> 100	> 100	8.95	–	–	–	–	–
c1ccc(C2[C@@H]3CCCc4ccccc4C3=NN2c2ccccc2)cc1 (some centres undefined)	–	–	> 100	> 100	> 100	> 100	> 100	–	–	–	–	–
CCOC(=O)/N=c1/nc(N(C)C)ss1	–	–	> 100	> 100	–	> 100	> 100	> 100	> 100	–	–	–
COC(=O)C1CC(C(=O)OC)c2nc3cc(C)c(C)cc3nc21 (centres undefined)	–	–	> 100	> 100	> 100	> 100	> 100	> 100	> 100	–	–	–
Cc1ccc(S(=O)OC23CC4CC(CC(C4)C2)C3)cc1 (centres undefined)	–	–	> 100	> 100	> 100	> 100	> 100	> 100	> 100	–	–	–
CN(C)CCNc1nc(-c2cccs2)cc(-c2cccs2)n1	–	–	–	28.1	–	34.1	12.1	–	–	–	–	–
COc1ccc(C(=O)O/N=C2/CCC/C2=C\c2ccccc2)cc1	–	–	> 100	> 100	> 100	> 100	> 100	> 100	> 100	–	–	–
CC(=O)CC(=O)/C=C/c1cccs1	–	–	> 100	> 100	> 100	–	–	–	–	–	–	–
Nc1ccc(C(=O)N/C(=C\c2cccc([N+](=O)[O-])c2)c2nc3c4c(ccc3[nH]2)C(=O)c2ccccc2C4=O)cc1	–	–	> 100	> 100	> 100	> 100	> 100	> 100	> 100	–	–	–
N#Cc1c2c(c(-c3cccs3)n(C3OC(CO)C(O)C(O)C3O)c1=S)CCc1ccccc1-2 (centres undefined)	–	> 100	–	–	–	–	–	–	–	–	–	–
Cc1cc(O)cc2c1c(=O)c1ccccc1n2C	–	> 100	–	–	–	–	–	–	–	–	–	–
COc1cc([C@@H]2c3cc4c(cc3C[C@H]3COC(=O)[C@@H]32)OCO4)cc2c1OCO2	–	< 0.01	–	–	–	–	–	–	–	–	–	–
O=C(c1ccccc1)C1C(C(=O)c2ccccc2)C(c2ccccc2)N(c2ccccc2)C1c1ccccc1 (centres undefined)	–	> 100	–	–	–	–	–	–	–	–	–	–
COc1ccc2nc3cccc(C(=O)NCCN(C)C)c3nc2c1	–	–	6.46	–	3.5	9.01	0.696	> 21.8	> 100	–	–	–
C[N+](C)(C)CC1CCCC/C1=N\O (centres undefined)	–	–	> 100	> 100	–	> 100	–	> 100	> 100	–	–	–
OCC(O)C(OC1OC(CO)C(O)C(O)C1O)c1nn(-c2ccccc2)c2nc3cc(Cl)ccc3nc12 (centres undefined)	–	–	> 100	> 100	> 100	> 100	> 100	–	–	–	–	–
Cc1ncc([N+](=O)[O-])n1CCNC(=O)CCCCCn1ccnc1[N+](=O)[O-]	–	> 100	–	–	–	–	–	–	–	–	–	–
Nc1c(-c2nc3ccccc3[nH]2)sc(=S)n1-c1ccc(Cl)cc1	–	–	–	–	84.2	66.3	52.4	38.6	–	–	–	–

Structure (SMILES)	GI50 (MDA-N) [µM]	TGI (MDA-N) [µM]	TGI (KM20L2 colon) [µM]	TGI (LXFL 529 NSCLC) [µM]	TGI (M19-MEL melanoma) [µM]	TGI (SNB-78 CNS) [µM]	TGI (XF 498 CNS) [µM]	TGI (HOP-18 NSCLC) [µM]	TGI (RXF-631 renal) [µM]	GI50 (HOP-18 NSCLC) [µM]	GI50 (M19-MEL melanoma) [µM]	GI50 (XF 498 CNS) [µM]
NS(=O)(=O)c1ccc(NC(=O)COC(=O)c2cccc3c(=O)c4ccccc4[nH]c23)cc1	–	–	> 100	20.9	> 100	44.5	–	58.9	> 100	–	–	–
CC(=O)O[C@H]1C=CC23OC(=O)[C@]1(C)[C@H]2[C@H](C(=O)O)C12CC(=O)[C@@](CO)(CC[C@H]13)C2	–	–	> 100	> 100	> 100	> 100	> 100	> 100	> 100	–	–	–
CC(C)(C)OC(=O)N1N=NC2C3OC(CC3=O)C21 (centres undefined)	–	–	> 100	> 100	–	> 100	–	> 100	> 100	–	–	–
NC(=O)N/N=C(/c1nc2ccc([N+](=O)[O-])cc2[nH]c1=O)C(O)c1ccco1 (centres undefined)	–	–	66.4	> 100	> 100	> 100	> 100	–	> 100	–	–	–
Cc1cc(O)c(C(c2ccncc2)c2c(O)cc(C)[nH]c2=O)c(=O)[nH]1	–	> 100	–	–	–	–	–	–	–	–	–	–
CC(=O)n1ccc2c(Cl)ncnc21	–	–	> 100	> 100	> 100	> 100	–	> 100	> 100	–	–	–
CC(C)N(C(C)C)P(OCCC#N)OC1CC(n2cnc3c(=O)[nH]cnc32)OC1COC(=O)NCCCCCCNC(=O)OC(C)(C)c1ccc(-c2ccccc2)cc1 (centres undefined)	–	–	> 100	32.5	42.2	> 100	–	> 100	–	–	–	–
O=C1NC2(C=Cc3c(ccc4ccccc34)O2)Oc2ccccc21 (centres undefined)	–	–	> 100	56.4	> 100	94.1	> 100	–	–	–	–	–
Cc1ccc(NC(=O)CCC(=O)C(C#N)c2ccccc2)cc1C (centres undefined)	–	–	> 100	> 100	–	> 100	> 100	> 100	> 100	–	–	–
CCOC(=O)NC(=O)c1c[nH]c(=O)[nH]c1=O	–	–	> 100	> 100	> 100	> 100	> 100	> 100	> 100	–	–	–
O=C1c2ccccc2-c2c1c1ccccc1c(=O)n2-c1ccccc1	–	> 100	–	–	–	–	–	–	–	–	–	–
C[n+]1c(N)n(C(=O)OCc2ccccc2)c(=O)c2c1ncn2C(=O)OCc1ccccc1	–	–	> 100	> 100	> 100	> 100	–	> 100	–	–	–	–
O=C(Nc1cccc(C(F)(F)F)c1)c1cc(Br)cc(Br)c1O	–	> 10	–	–	–	–	–	–	–	–	–	–
COC(=O)C(Cc1nc2ccccc2[nH]c1=O)C(=O)C(=O)Nc1cc(C(F)(F)F)ccc1Cl (centres undefined)	–	> 100	–	–	–	–	–	–	–	–	–	–
COC(=O)C1C2CC3C(OC(=O)C31)C2OC(=O)[C@](OC)(c1ccccc1)C(F)(F)F (some centres undefined)	–	–	> 100	> 100	> 100	> 100	> 100	–	> 100	–	–	–
COC(=O)Cc1nc2ccccc2o1	–	–	46.4	> 100	> 100	> 100	> 100	> 100	> 100	–	–	–
COc1cc(C2c3cc4c(cc3[C@@H](Nc3ccc(N)cc3)C3COC(=O)[C@H]23)OCO4)cc(OC)c1O (some centres undefined)	–	18.4	21.4	31	23.7	60.5	13.6	40.4	–	0.944	0.99	0.716
COc1ccc(/C=N/N=C(\[O-])c2ccncc2)cc1F.COc1ccc(/C=N\N=C(/[O-])c2ccncc2)cc1F.[Cu+2]	32.7	> 100	–	–	–	–	–	–	–	–	–	–

From PubChem BioAssay (NCI)
